In one test the target is FXa (Homo sapiens, UniProt P00742). Briefly: Factor Xa inhibition (FXa-IC50). The format is biochemical. An excerpt:
The inhibition of factor Xa by the compounds according to the invention and the measurement of the anticoagulant and antithrombotic activity can be determined by conventional in-vitro or in-vivo methods. A suitable method is described, for example, by J. Hauptmann et al. in Thrombosis and Haemostasis 1990, 63, 220-223.
The inhibition of factor Xa can be measured, for example, by the method of T. Hara et al. in Thromb. Haemostas. 1994, 71, 314-319.

In a further test the target is TF/FVIIa (Homo sapiens, UniProt P08709). Description: TF/factor VIIa inhibition (TF/FVIIa-IC50). The format is biochemical. The source says:
The inhibition of factor VIIa by the compounds according to the invention and the measurement of the anticoagulant and antithrombotic activity can be determined by conventional in-vitro or in-vivo methods. A conventional method for the measurement of the inhibition of factor VIIa is described, for example, by H. F. Ronning et al. in Thrombosis Research 1996, 84, 73-81.

FXa, sequence (P00742 235-488 limits assumed): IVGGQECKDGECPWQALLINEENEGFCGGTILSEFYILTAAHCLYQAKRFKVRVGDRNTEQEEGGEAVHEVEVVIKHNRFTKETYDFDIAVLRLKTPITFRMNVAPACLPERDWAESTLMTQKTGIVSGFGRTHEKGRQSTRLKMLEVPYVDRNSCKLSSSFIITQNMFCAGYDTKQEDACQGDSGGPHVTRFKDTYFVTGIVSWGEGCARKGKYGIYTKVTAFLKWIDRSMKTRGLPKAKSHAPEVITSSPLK
FXa, sequence (P00742 41-179 limits assumed): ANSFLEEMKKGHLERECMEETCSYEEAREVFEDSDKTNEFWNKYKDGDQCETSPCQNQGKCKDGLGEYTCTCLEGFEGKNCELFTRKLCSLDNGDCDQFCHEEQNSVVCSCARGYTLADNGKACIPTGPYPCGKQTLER
TF/FVIIa, sequence (P08709 213-466 limits assumed): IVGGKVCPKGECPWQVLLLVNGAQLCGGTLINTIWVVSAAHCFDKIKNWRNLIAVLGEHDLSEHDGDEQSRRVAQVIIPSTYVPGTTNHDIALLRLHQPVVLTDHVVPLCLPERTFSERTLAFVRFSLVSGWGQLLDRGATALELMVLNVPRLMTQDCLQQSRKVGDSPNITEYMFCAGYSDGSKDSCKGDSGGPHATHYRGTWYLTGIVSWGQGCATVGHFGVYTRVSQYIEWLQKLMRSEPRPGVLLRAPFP
TF/FVIIa, sequence (P08709 61-212 limits assumed): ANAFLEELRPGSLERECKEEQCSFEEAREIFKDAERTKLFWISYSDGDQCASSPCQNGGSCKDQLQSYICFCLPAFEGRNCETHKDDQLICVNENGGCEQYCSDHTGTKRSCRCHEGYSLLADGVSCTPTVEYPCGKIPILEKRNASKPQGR
TF/FVIIa, sequence (P13726 33-295 partner): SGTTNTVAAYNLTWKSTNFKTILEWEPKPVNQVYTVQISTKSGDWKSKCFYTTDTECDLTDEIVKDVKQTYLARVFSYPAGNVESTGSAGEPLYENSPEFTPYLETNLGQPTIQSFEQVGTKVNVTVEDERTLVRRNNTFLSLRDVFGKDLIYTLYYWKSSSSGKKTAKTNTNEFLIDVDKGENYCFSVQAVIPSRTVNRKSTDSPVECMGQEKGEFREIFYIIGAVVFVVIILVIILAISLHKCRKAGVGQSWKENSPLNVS

Consider `CCCC(Oc1ccc2ccnc(N)c2c1)C(=O)Nc1ccc(N2CCCCC2=O)cc1` (stereo not shown) [AA, N-[4-(2-Oxopiperidin-1-yl)phenyl]-2-(1-aminoisoquinolin-7-yloxy)-pentanamide], for which the IC50 is 350 nM against FXa and 220 nM against TF/FVIIa.
In the same order, the values of `Nc1nccc2ccc(OC(C(=O)Nc3ccc(N4CCCCC4=O)cc3)c3ccccc3)cc12` (stereo not shown) [AB, N-[4-(2-oxopiperidin-1-yl)phenyl]-2-(1-aminoisoquinolin-7-yloxy)-2-phenylacetamide] are 350 nM and 200 nM.

What is called IC50 is the concentration that gives 50% inhibition. The low end stands for higher potency, the high end for lower potency.

The values above are taken from patent US7902223B2, “Phenyl derivatives as factor XA inhibitors” (Merck Patent GmbH, priority 2001, dated 2011).
